Converted amounts (≈) assume the structure as drawn. One block for each molecule: values may come before it.
Experiments:
Assay type in all cases: physicochemical
[1] = Storage in humidity chamber at 96% r.h., solid form checked by XRPD; conditions: for solid form by XRPD after storing in humidity chamber: 96% r.h.
Method: Desolvation of the solvates tends to produce the amorphous form.
(§1) (approx. ±0.1%). After storing for 3 days at 96% r.h. at room temperature (Test 49), FIG. 29a, and at 40° C. […] The water uptake measured by the Karl Fischer method was very low (<0.2%). […] The broad background in the XRPD diagram, FIG. 26, is due to water remaining in the sample after careful drying at room temperature following filtration of the suspension. The Karl Fischer result indicates 45% water content.

[2] = Dynamic vapor sorption (DVS)
Method: The sample (9.869 mg) was placed on a Pt pan, and the sample was allowed to equilibrate at 25° C. at 50% relative humidity (r.h.) before starting a pre-defined humidity program. The predefined humidity programs include 1.0 hours 50%, from 50% r.h. to 0% r.h.; 5% r.h. per hour, 5 hours at 0% r.h., from 0% r.h. to 93% r.h.; 5% r.h. per hour, 5 hours at 93% r.h., from 93% r.h. to 50% r.h.; and 5% r.h. per hour, 1 hours at 50% r.h.
as §1

[3] = Karl Fischer moisture analysis after humidity storage; conditions: after storing 3 days at 96% r.h.
Method: as §1, with “Karl Fischer moisture analyses were carried out according to standard procedures. […] (approx.” for “(approx.”

[4] = Phase equilibration experiment in water, solid form checked by XRPD; conditions: stirring 3 days, 23° C. (room temperature)
Method: as §1

[5] = Phase equilibration experiments in EtOAc/heptane 1:7 v/v; conditions: 3 days
[6] = Measurement of the approximate solubility at ambient temperature; conditions: organic solvent or mixture, 23° C.
Method: In some embodiments, to determine the approximate solubility at room temperature, solvent was added in steps to the solid material. After every addition, the sample was well stirred. The addition of solvent was continued until complete dissolution or until 20 ml of solvent was added.
In other embodiments, aliquots of the test solvent were added to an accurately weighed amount of the compound of Formula I in small increments (usually 100-1000 μL), with sonication until complete dissolution was obtained, if possible. Dissolution was determined visually. The actual solubilities may be higher than reported due to slow dissolution rates or the use of excess solvent. The approximate solubility was determined in mg/mL to the nearest whole number.
The approximate solubility at ambient temperature must be known in order to carry out systematic crystallization experiments.

SMILES: Cc1cc(OC[P@@]2(=O)OCC[C@@H](c3cccc(Cl)c3)O2)cc(C)c1Cc1ccc(O)c(C(C)C)c1 [THF solvate]
solid form by XRPD after storing in humidity chamber ([1]; 23° C. (room temperature), 8 weeks): a mixture of the solvate and the amorphous form

water uptake (DVS) ([2]; FIG. 29a): less than 0.2 % by weight
hygroscopicity ([2]; conclusion from DVS and humidity tests): non-hygroscopic
solid form by XRPD after storing in humidity chamber ([1]; 23° C. (room temperature), 3 days): no transformation of the crystal form
solid form by XRPD after storing in humidity chamber ([1]; 40° C., 3 days): no transformation of the crystal form
water uptake measured by the Karl Fischer method [3]: < 0.2%
solid form by XRPD after phase equilibration in water [4]: no transformation of the crystal form
solid form by XRPD after phase equilibration in water ([4]; listed as crystalline Form C): no transformation
solid form after phase equilibration in EtOAc/heptane 1:7 v/v ([5]; 78° C.): no transformation
solid form after phase equilibration in EtOAc/heptane 1:7 v/v ([5]; room temperature): no transformation
SMILES: Cc1cc(OC[P@@]2(=O)OCC[C@@H](c3cccc(Cl)c3)O2)cc(C)c1Cc1ccc(O)c(C(C)C)c1 [Crystal form C]
solid form by XRPD following DVS analysis ([2]; FIGS. 24 and 25): did not transition to a different polymorph
hydrate formation ([1]; conclusion from DVS, humidity storage and water equilibration): does not show any evidence of hydrate formation

solubility ([6]; methyl ethyl ketone, thermodynamic from solid, methy ethyl ketone): > 480 mg/mL
solubility ([6]; thermodynamic from solid, 1-octanol): > 200 mg/mL
solubility ([6]; thermodynamic from solid, 2,2,2-trifluoroethanol): ~195 mg/mL (≈ 379 mM)
solubility ([6]; thermodynamic from solid, EtOAc): ~772 mg/mL (≈ 1500 mM)
solubility ([6]; thermodynamic from solid, EtOAc/n-heptane 75:25 v/v): > 200 mg/mL
solubility ([6]; thermodynamic from solid, N-methyl-2-pyrrolidone (NMP)): > 200 mg/mL
solubility ([6]; thermodynamic from solid, THF): > 384 mg/mL
solubility ([6]; thermodynamic from solid, THF/water 75:25 v/v): 190 mg/mL (≈ 369 mM)
solubility ([6]; thermodynamic from solid, acetic acid): > 200 mg/mL
solubility ([6]; thermodynamic from solid, acetone/n-heptane 75:25 v/v): > 200 mg/mL
solubility ([6]; thermodynamic from solid, acetone/water 75:25 v/v): > 200 mg/mL
solubility ([6]; thermodynamic from solid, acetonitrile): > 480 mg/mL
solubility ([6]; thermodynamic from solid, acetonitrile/water 75:25 v/v): > 200 mg/mL
solubility ([6]; thermodynamic from solid, chloroform): > 388 mg/mL
solubility ([6]; thermodynamic from solid, dichloromethane): > 480 mg/mL
solubility ([6]; thermodynamic from solid, ethanol): > 200 mg/mL
solubility ([6]; thermodynamic from solid, ethanol/n-heptane 75:25 v/v): > 200 mg/mL
solubility ([6]; thermodynamic from solid, ethanol/water 75:25 v/v): > 200 mg/mL
solubility ([6]; thermodynamic from solid, methyl nonafluorobutyl ether): < 39 mg/mL
solubility ([6]; thermodynamic from solid, methylcyclohexane): < 40 mg/mL
solubility ([6]; thermodynamic from solid, n-heptane): < 38 mg/mL
solubility ([6]; thermodynamic from solid, nitrobenzene): > 200 mg/mL
solubility ([6]; thermodynamic from solid, pyridine): > 200 mg/mL
solubility ([6]; thermodynamic from solid, tert-butyl methyl ether (TBME)): > 200 mg/mL
solubility ([6]; thermodynamic from solid, tetrahydrofuran (THF)/n-heptane 75:25 v/v): > 200 mg/mL
solubility ([6]; thermodynamic from solid, toluene): > 200 mg/mL
SMILES: Cc1cc(OC[P@@]2(=O)OCC[C@@H](c3cccc(Cl)c3)O2)cc(C)c1Cc1ccc(O)c(C(C)C)c1 [Starting Material A]

Reference: patent US12227533B2, “Crystalline forms and methods of producing crystalline forms of a compound” (Viking Therapeutics, Inc., priority 2018, dated 2025)
